{
  "source": "paper PMC6749073",
  "about": "(Frontiers in Pharmacology, 2019)",
  "key": {"[1]": {"assay": "Biodistribution of Pt by atomic absorption spectrometry in A549 xenograft nude mice", "type": "in vivo", "conditions": "6 h after administration; diplatin 120 mg/kg vs CBP 70 mg/kg (equivalent Pt dose), i.v.", "procedure": "At each time point of 10 min, 2 h, 6 h, and 24 h after administration, six mice were sacrificed. The tumors, organs/tissues, and blood were immediately collected. Then, Pt concentration was measured by atomic absorption spectrometry, counting the weight/volume of the tumors, tissues, organs, or blood.\nAt each time point of 10 min, 2 h, 6 h and 24 h after administration, 6 mice were sacrificed. The tumors, organ/tissue, and blood were immediately collected. Then, Pt concentration was measured by atomic absorption spectrometry, counting the weight/volume of the tumors, tissues or organs/blood."}, "[2]": {"test_system": "LTEP-A-2", "assay": "MTT cell viability assay, LTEP-A-2", "type": "cell-based, human", "conditions": "48 h", "procedure": "(§1) Cells were seeded at a density of 1 × 10^4 cells per well in 96-well plates. The following day, these cells were washed with PBS and exposed to different concentrations of testing compounds in culture medium for 48 h. MTT solution (10 μl at 5 mg/ml) was added to each well. After 4 h of incubation at 37°C, the medium was removed, and the insoluble precipitate was dissolved in 100 μl DMSO (Sigma, St. Louis, MO, USA). The absorbance of the dissolved solution at 490 nm was measured using a microplate reader (TECAN A-5082; Megllan, Austria). Cell viability percentages were calculated by dividing the mean optical density (OD) of compound-containing wells by that of the control wells. Each experiment was replicated three times. The IC50 of testing drugs was calculated with Statistical Product and Service Solutions software (SPSS, version 16.0)."}, "[3]": {"test_system": "A549 xenograft tumors", "assay": "A549 xenograft tumor growth in nude mice", "type": "in vivo", "conditions": "30, 60, 120 mg/kg, tail vein every 3 days", "protocol": "(§3) Cells in logarithmic growth were washed with PBS and suspended in serum-free medium. Portions of the suspension (5 × 10^6 cells in 0.1 ml/mouse) were mixed at a 3:1 ratio with Matrigel basement membrane matrix and injected subcutaneously into the mice. Following 2 weeks of growth, tumor tissues were cut into multiple 2 × 2 × 2 mm^3 pieces and implanted using a range trocar subcutaneously (s.c. injection) into the left forepaw armpit of each mouse ([Jiang et al., 2017]). Treatment with pharmacology was started when the tumors reached an average volume of 100–200 mm^3. The mice were randomly divided into six groups (n = 14/group).\n(§4) Body weight and tumor size were assessed every 3 days. Tumor size was measured using a caliper, the volumes were calculated according to the following standard formula: V = (L × W^2)/2 (V = tumor volume, L = largest diameter of tumor, W = smallest diameter of tumor). On day 25, all mice were sacrificed by cervical dislocation, and the tumors were removed and weighed."}, "[4]": {"test_system": "H292 xenograft tumor", "assay": "H292 xenograft tumor growth in nude mice", "type": "in vivo", "conditions": "120 mg/kg, tail vein every 3 days", "protocol": "as §3, §4"}, "[5]": {"test_system": "LTEP-A-2 xenograft tumor", "assay": "LTEP-A-2 xenograft tumor growth in nude mice", "type": "in vivo", "conditions": "comparable to DDP 6 mg/kg and CBP 60 mg/kg"}, "[6]": {"test_system": "A549/DDP", "assay": "MTT cell viability assay, A549/DDP", "type": "cell-based, human", "conditions": "A549/DDP (DDP-resistant), 48 h", "procedure": "as §1"}, "[7]": {"test_system": "ICR mice", "assay": "General neurotoxicity observation in ICR mice", "type": "in vivo", "conditions": "i.v.", "description": "The animals were observed daily for any evident symptoms of sickness. Changes in their appearance (e.g., kyphosis and altered grooming), behavior (altered nesting) and activity (altered exploring) were monitored for general neurotoxicity assessment."}, "[8]": {"test_system": "BEAS-2B normal human lung epithelial cell line", "assay": "MTT cell viability assay, BEAS-2B", "type": "cell-based", "procedure": "as §1"}, "[9]": {"test_system": "Calu-3", "assay": "MTT cell viability assay, Calu-3", "type": "cell-based, human", "conditions": "48 h", "procedure": "as §1"}, "[10]": {"test_system": "A549 and H292 cells", "assay": "EdU incorporation assay", "type": "cell-based, human", "conditions": "48 h; diplatin 50 μM, DDP 5 μM, CBP 100 μM", "procedure": "Cell proliferation was analyzed by measurement of DNA synthesis as identified by the EdU cell proliferation assay, which was applied in accordance with product manufacturer instructions. Cells (5 × 10^4 cells per well) were cultured in triplicate in 24-well plates and treated with testing compounds for 48 h. Then the cells were incubated with 50 μM EdU for an additional 2 h at 37°C. Cells were fixed with 4% formaldehyde for 30 min and were permeabilized with 0.5% Triton X-100 for 10 min at room temperature. After washing with PBS three times, cells were incubated for 30 min with 1× Apollo reaction cocktail. Finally, cells were stained with 10 μg/ml of Hoechst 33342 for 30 min and then imaged using a confocal laser scanning microscope (FV1000; Olympus, Japan). The percentage of EdU^+ cells was quantified using ImageJ software by dividing the mean OD of EdU^+ cells to the mean OD of Hoechst-labeled cells."}, "[11]": {"test_system": "H292 cells", "assay": "Cell cycle by PI flow cytometry, H292", "type": "cell-based, human", "conditions": "diplatin 50 μM, DDP 5 μM, CBP 100 μM", "procedure": "(§2) Then, the cells were trypsinized, washed with PBS, and fixed in 1.5 ml 95% ethanol and left at 4°C overnight. They were then incubated with RNase and stained with propidium iodide (PI) (Multi Sciences Biotech Co., Ltd). PI absorbance was determined using a Cytomics FC500 Flow Cytometer (Beckman Coulter, USA)."}, "[12]": {"test_system": "A549 cells", "assay": "Cell cycle by PI flow cytometry, A549", "type": "cell-based, human", "conditions": "diplatin 50 μM, DDP 5 μM, CBP 100 μM", "procedure": "as §2"}, "[13]": {"assay": "Body weight and tolerability of A549 and H292 xenograft mice", "type": "in vivo", "protocol": "as §3, §4"}, "[14]": {"test_system": "JNK, Erk1/2 and p38 phosphorylation in A549 and H292 cells", "assay": "Western blot of MAPK phosphorylation (JNK, Erk1/2, p38)", "type": "cell-based, human", "procedure": "Cells were treated with diplatin, DDP, and CBP before being lysed. After centrifugation at 12,000 rpm for 10 min, an equal amount of protein from each group was subjected to electrophoresis on 10% SDS-PAGE gels. The proteins in the gel were then electroblotted onto polyvinylidene fluoride (PVDF) membranes (Millipore, Massachusetts, USA). After incubation in the blocking buffer (1× TBS, 0.1% Tween-20, and 5% w/v dry nonfat milk) for 1 h at room temperature, the membranes were incubated with the primary antibody at 4°C overnight. Next, membranes were rinsed with TBST, and then secondary antibodies were applied (LI-COR, USA) at room temperature for 1 h. Immunoreactive bands were visualized by a two-color infrared imaging system (Odyssey, LI-COR, USA)."}, "[15]": {"test_system": "LTEP-A-2 cells", "assay": "Cell cycle by PI flow cytometry, LTEP-A-2", "type": "cell-based, human", "conditions": "diplatin 50 µM, DDP 5 µM, CBP 100 µM", "procedure": "as §2"}, "[16]": {"test_system": "H460", "assay": "MTT cell viability assay, H460", "type": "cell-based, human", "conditions": "48 h", "procedure": "as §1"}, "[17]": {"test_system": "rats", "assay": "Renal pathology (H&E) in rats", "type": "in vivo", "conditions": "7.5, 15, and 30 mg/kg twice a week for 4 weeks", "procedure": "Total 30 rats were employed in the experiments, 20 rats were euthanized with isoflurane 3 days after the last administration, and the kidneys were excised and examined by the H&E staining, and the remaining 10 rats were handled after the recovery period (two weeks after the last administration). We found drug-related renal changes were appeared in the rats, especially in the high dose group (30 mg/kg). Of all the changes, the renal tubular epithelium denaturation/regeneration and tubular dilation are the most obvious, which are early appeared after 7.5 mg/kg treatment at both last administration and during recovery period."}, "[18]": {"test_system": "H460 cells", "assay": "Cell cycle by PI flow cytometry, H460", "type": "cell-based, human", "conditions": "diplatin 50 µM, DDP 5 µM, CBP 100 µM", "procedure": "as §2"}, "[19]": {"test_system": "H1650", "assay": "MTT cell viability assay, H1650", "type": "cell-based, human", "conditions": "48 h", "procedure": "as §1"}},
  "data": [
    {"smiles": "CCN(CC)CCCCC1C(=O)[O][Pt][O]C1=O.N[C@@H]1CCCC[C@H]1N.O=P(O)(O)O", "note": "[Diplatin]", "values": [
      {"measurement": "Pt accumulation in the kidneys, times higher than CBP", "setting": "[1]", "result": 2.2, "unit": "times"},
      {"measurement": "IC50", "setting": "[2]", "result": 24.6, "unit": "µM"},
      {"measurement": "effect on growth of A549 xenograft tumors", "setting": "[3]", "result": "dose-dependently inhibited the growth"},
      {"measurement": "inhibition of H292 xenograft tumor growth", "setting": "[4]", "result": 65.0, "unit": "%"},
      {"measurement": "effect on LTEP-A-2 xenograft tumor volume and weight", "setting": "[5]", "result": "significant inhibition on xenograft tumor volume and weight"},
      {"measurement": "IC50", "setting": "[6]", "result": 133, "unit": "µM"},
      {"measurement": "animals showing signs of mild kyphosis and piloerection", "setting": "[7]; 240 mg/kg twice a week for 4 weeks", "result": "approximately 20%"},
      {"measurement": "changes in behavior (altered nesting) and activity (altered exploring)", "setting": "[7]; 60, 120, or 240 mg/kg twice a week for 4 weeks", "result": "no notable changes"},
      {"measurement": "IC50", "setting": "[8]; BEAS-2B normal lung epithelial cells, MTT, 48 h", "result": 47.9, "unit": "µM"},
      {"measurement": "suppression of the viability of BEAS-2B cells compared to DDP", "setting": "[8]; vs DDP", "result": "threefold less suppression"},
      {"measurement": "IC50", "setting": "[9]", "result": 161, "unit": "µM"},
      {"measurement": "EdU incorporation", "setting": "[10]", "result": "dramatically decreased"},
      {"measurement": "effect on cell cycle distribution", "setting": "[11]", "result": "failed to arrest any portion of the cell cycle"},
      {"measurement": "effect on cell cycle distribution", "setting": "[12]", "result": "significant accumulation of cells in G2/M phase"},
      {"measurement": "effect on body weight", "setting": "[13]; diplatin 30 mg/kg and 60 mg/kg", "result": "no observable effects"},
      {"measurement": "reduction of body weight by day 25", "setting": "[13]; diplatin 120 mg/kg, CBP 60 mg/kg, every 3 days i.v.", "result": 14.38, "unit": "%"},
      {"measurement": "concentration of apparent maximum JNK phosphorylation", "setting": "[14]; 0.5 h exposure", "result": 25, "unit": "µM"},
      {"measurement": "Erk1/2 and p38 phosphorylation", "setting": "[14]; diplatin 10, 25, 50 μM, DDP 5 μM, CBP 100 μM", "result": "failed to induce Erk1/2 and p38 phosphorylation"},
      {"measurement": "JNK phosphorylation levels", "setting": "[14]; diplatin 10–50 μM, DDP 10 μM, 0.5 h", "result": "elevated"},
      {"measurement": "effect on cell cycle distribution", "setting": "[15]", "result": "significant accumulation of cells in G2/M phase"},
      {"measurement": "IC50", "setting": "[16]", "result": 40.7, "unit": "µM"},
      {"measurement": "renal pathology in rats", "setting": "[17]", "result": "nephrotoxicity"},
      {"measurement": "effect on cell cycle distribution", "setting": "[18]", "result": "failed to arrest the cells in the G2/M phase"},
      {"measurement": "IC50", "setting": "[19]", "result": 36.6, "unit": "µM"}
    ]}
  ]
}
